Laboratory results as given in US11717508B2, “Compounds, compositions, and methods for inhibiting bacterial growth” (priority 2016, dated 2023).

System: DosRST regulon
Assay type: cell-based
[1] = Rv1834, WT Mtb treated with HC102A compared to DMSO
[2] = Rv1996, WT Mtb treated with HC102A compared to DMSO
[3] = Rv1997 ctpF, WT Mtb treated with HC102A compared to DMSO
[4] = Rv2003c, WT Mtb treated with HC102A compared to DMSO
[5] = Rv2004c, WT Mtb treated with HC102A compared to DMSO
[6] = Rv2005c, WT Mtb treated with HC102A compared to DMSO
[7] = Rv2006 otsB, WT Mtb treated with HC102A compared to DMSO
[8] = Rv2007c fdxA, WT Mtb treated with HC102A compared to DMSO
[9] = Rv2027c, WT Mtb treated with HC102A compared to DMSO
[10] = Rv2028c, WT Mtb treated with HC102A compared to DMSO
[11] = Rv2030c, WT Mtb treated with HC102A compared to DMSO
[12] = Rv2032, WT Mtb treated with HC102A compared to DMSO
[13] = Rv2623, WT Mtb treated with HC102A compared to DMSO
[14] = Rv2624c, WT Mtb treated with HC102A compared to DMSO

C[C@@H]1CC(C)(C)C[C@]2(C1)NC(=O)NC2=O (racemic) [HC102A, 7,7,9-trimethyl-1,3-diazaspiro[4.5]decane-2,4-dione]
Counts per million (CPM) WT_HC102A2, gene MT1861 (Rv1813c, WT Mtb treated with HC102A, replicate 2): 147.2 CPM
Fold change, gene MT1882 [1]: 0.4723
log2 Fold change, gene MT1882 [1]: −1.082
Counts per million (CPM) WT_HC102A1, gene MT1882 (Rv1834, WT Mtb treated with HC102A, replicate 1): 37.79 CPM
Counts per million (CPM) WT_HC102A2, gene MT1882 (Rv1834, WT Mtb treated with HC102A, replicate 2): 31.49 CPM
Fold change, gene MT2052 [2]: 0.01797
log2 Fold change, gene MT2052 [2]: −5.798
Counts per million (CPM) WT_HC102A1, gene MT2052 (Rv1996, WT Mtb treated with HC102A, replicate 1): 561.6 CPM
Counts per million (CPM) WT_HC102A2, gene MT2052 (Rv1996, WT Mtb treated with HC102A, replicate 2): 277.3 CPM
Fold change, gene MT2053 [3]: 0.04882
log2 Fold change, gene MT2053 [3]: −4.356
Counts per million (CPM) WT_HC102A1, gene MT2053 (Rv1997 ctpF, WT Mtb treated with HC102A, replicate 1): 105.1 CPM
Counts per million (CPM) WT_HC102A2, gene MT2053 (Rv1997 ctpF, WT Mtb treated with HC102A, replicate 2): 117.4 CPM
Fold change, gene MT2059 [4]: 0.2227
log2 Fold change, gene MT2059 [4]: −2.167
Counts per million (CPM) WT_HC102A1, gene MT2059 (Rv2003c, WT Mtb treated with HC102A, replicate 1): 203.6 CPM
Counts per million (CPM) WT_HC102A2, gene MT2059 (Rv2003c, WT Mtb treated with HC102A, replicate 2): 97.15 CPM
Fold change, gene MT2060 [5]: 0.2044
log2 Fold change, gene MT2060 [5]: −2.291
Counts per million (CPM) WT_HC102A1, gene MT2060 (Rv2004c, WT Mtb treated with HC102A, replicate 1): 661.2 CPM
Counts per million (CPM) WT_HC102A2, gene MT2060 (Rv2004c, WT Mtb treated with HC102A, replicate 2): 393.9 CPM
Fold change, gene MT2061 [6]: 0.1302
log2 Fold change, gene MT2061 [6]: −2.942
Counts per million (CPM) WT_HC102A1, gene MT2061 (Rv2005c, WT Mtb treated with HC102A, replicate 1): 308.4 CPM
Counts per million (CPM) WT_HC102A2, gene MT2061 (Rv2005c, WT Mtb treated with HC102A, replicate 2): 262.8 CPM
Fold change, gene MT2062 [7]: 0.2411
log2 Fold change, gene MT2062 [7]: −2.052
Counts per million (CPM) WT_HC102A1, gene MT2062 (Rv2006 otsB, WT Mtb treated with HC102A, replicate 1): 140.8 CPM
Counts per million (CPM) WT_HC102A2, gene MT2062 (Rv2006 otsB, WT Mtb treated with HC102A, replicate 2): 181.1 CPM
Fold change, gene MT2063 [8]: 0.2221
log2 Fold change, gene MT2063 [8]: −2.171
Counts per million (CPM) WT_HC102A1, gene MT2063 (Rv2007c fdxA, WT Mtb treated with HC102A, replicate 1): 1,505.73 CPM
Counts per million (CPM) WT_HC102A2, gene MT2063 (Rv2007c fdxA, WT Mtb treated with HC102A, replicate 2): 2,151.57 CPM
Fold change, gene MT2086 [9]: 0.3538
log2 Fold change, gene MT2086 [9]: −1.499
Counts per million (CPM) WT_HC102A1, gene MT2086 (Rv2027c, WT Mtb treated with HC102A, replicate 1): 90.79 CPM
Counts per million (CPM) WT_HC102A2, gene MT2086 (Rv2027c, WT Mtb treated with HC102A, replicate 2): 84.31 CPM
Fold change, gene MT2087 [10]: 0.08322
log2 Fold change, gene MT2087 [10]: −3.587
Counts per million (CPM) WT_HC102A1, gene MT2087 (Rv2028c, WT Mtb treated with HC102A, replicate 1): 62.1 CPM
Counts per million (CPM) WT_HC102A2, gene MT2087 (Rv2028c, WT Mtb treated with HC102A, replicate 2): 56.17 CPM
Fold change, gene MT2089 [11]: 0.06954
log2 Fold change, gene MT2089 [11]: −3.846
Counts per million (CPM) WT_HC102A1, gene MT2089 (Rv2030c, WT Mtb treated with HC102A, replicate 1): 1,125.52 CPM
Counts per million (CPM) WT_HC102A2, gene MT2089 (Rv2030c, WT Mtb treated with HC102A, replicate 2): 784.7 CPM
Fold change, gene MT2091 [12]: 0.06482
log2 Fold change, gene MT2091 [12]: −3.947
Counts per million (CPM) WT_HC102A1, gene MT2091 (Rv2032, WT Mtb treated with HC102A, replicate 1): 270.6 CPM
Counts per million (CPM) WT_HC102A2, gene MT2091 (Rv2032, WT Mtb treated with HC102A, replicate 2): 336.8 CPM
Fold change, gene MT2698 [13]: 0.02424
log2 Fold change, gene MT2698 [13]: −5.366
Counts per million (CPM) WT_HC102A1, gene MT2698 (Rv2623, WT Mtb treated with HC102A, replicate 1): 903.6 CPM
Counts per million (CPM) WT_HC102A2, gene MT2698 (Rv2623, WT Mtb treated with HC102A, replicate 2): 611.4 CPM
Fold change, gene MT2699 [14]: 0.052
log2 Fold change, gene MT2699 [14]: −4.265
Counts per million (CPM) WT_HC102A1, gene MT2699 (Rv2624c, WT Mtb treated with HC102A, replicate 1): 106.2 CPM
Counts per million (CPM) WT_HC102A2, gene MT2699 (Rv2624c, WT Mtb treated with HC102A, replicate 2): 108.4 CPM
Fold change, gene MT2700 (Rv2625c, WT Mtb treated with HC102A compared to DMSO): 0.02819
